Where two headings read alike, the source gives them in different places.

The values below come from US20220324835A1 (Nurix Therapeutics, Inc., priority 2018, published 2022).

The target in one assay is Cbl-b (Homo sapiens, UniProt Q13191). Put plainly: Cbl-b activity assay (Cbl-b inhibition assay), TR-FRET of Cbl-b interaction with UbcH5B-Ub. It is filed as biochemical. The conditions noted are these: assay buffer with 100 mM NaCl, 60 nM Src kinase; read-out: Cbl-b activity IC50. In a few lines: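 Compound-treated Cbl-b was incubated 1.5 h with Src kinase (60 nM final; 30 nM for asterisked values, which also used 50 mM instead of 100 mM NaCl), 1 mM ATP and 5 mM MgCl2. Binding to fluorescent Ub-loaded UbcH5B (C85K mutant) was then read by TR-FRET after 1 h more.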
Sequence of Cbl-b (Q13191 36-427): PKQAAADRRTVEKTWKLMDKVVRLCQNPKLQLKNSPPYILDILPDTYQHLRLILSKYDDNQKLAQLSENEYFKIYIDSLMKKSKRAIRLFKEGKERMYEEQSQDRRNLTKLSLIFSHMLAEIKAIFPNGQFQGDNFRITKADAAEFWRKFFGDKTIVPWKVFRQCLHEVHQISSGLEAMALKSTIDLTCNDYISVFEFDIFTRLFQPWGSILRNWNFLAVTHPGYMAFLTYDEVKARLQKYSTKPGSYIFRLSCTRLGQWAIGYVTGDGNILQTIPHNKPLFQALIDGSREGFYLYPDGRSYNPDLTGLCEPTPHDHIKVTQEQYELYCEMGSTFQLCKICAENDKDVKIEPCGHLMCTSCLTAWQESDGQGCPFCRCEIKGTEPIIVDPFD
A general note: Time-resolved FRET reads energy transfer from a long-lived donor to a nearby acceptor.

The test system of assay [1] is T-cell. The experiment in a line: IL-2 secretion from T-cells co-stimulated with anti-CD3 and anti-CD28 antibody (Biological Example 2). It is filed as cell-based, human. The following applies: Homo sapiens, T-cell, fold change over baseline, primary human total T-cells, read-out: IL-2 secretion Anti-CD3/Anti-CD28 stimulation; for fold induction at 0.3 µM: 0.3 μM Cbl-b inhibitor; for fold induction at 1 µM: 1 μM Cbl-b inhibitor; for fold induction at 4 µM: 4 μM Cbl-b inhibitor. In a few lines:
(§1)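 Values are fold-change over baseline: readings (IL-2 release, CD25 staining) from inhibitor-treated T-cells divided against untreated cells […]. No detailed procedure stated.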

The next assay has as its target Cbl-b (residues 36-427) (Homo sapiens, UniProt Q13191). Put plainly: Cbl-b binding assay (SPR, Biacore T200). The conditions noted are these: 20° C., 1:1 binding model. The method, boiled down: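 NeutrAvidin capture chip, 20° C; 50 s injections at 50 μl/min, 90-180 s dissociation; 0.3 M NaCl regeneration. Asterisked column: 50 mM NaCl buffer and 30 nM Src kinase in place of 100 mM NaCl and 60 nM Src kinase. 1:1 fit.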
In general terms: Surface plasmon resonance follows binding to a sensor surface in real time, without labels.

In assay [2] the test system is T-cell. The experiment in a line: IL-2 secretion from T-cells stimulated with anti-CD3 antibody alone (Biological Example 2). The class given is cell-based, human. The following applies: T-cell, fold change over baseline, primary human total T-cells, read-out: IL-2 secretion Anti-CD3 stimulation; for fold induction at 1 µM: 1 μM Cbl-b inhibitor; for fold induction at 8 µM: 8 μM Cbl-b inhibitor.

Assay [3] deals with T-cell. The experiment in a line: CD25 cell surface staining on T-cells co-stimulated with anti-CD3 and anti-CD28 antibody (Biological Example 2). The following applies: Homo sapiens, T-cell, fold change over baseline, primary human total T-cells, read-out: CD25 staining Anti-CD3/Anti-CD28 stimulation; for fold induction at 0.3 µM: 0.3 μM Cbl-b inhibitor; for fold induction at 1 µM: 1 μM Cbl-b inhibitor; for fold induction at 4 µM: 4 μM Cbl-b inhibitor. The class given is cell-based, human. The method, boiled down: as §1

The subject of assay [4] is T-cell. Put plainly: CD25 cell surface staining on T-cells stimulated with anti-CD3 antibody alone (Biological Example 2). It is filed as cell-based, human. The conditions noted are these: T-cell, fold change over baseline, primary human total T-cells, read-out: CD25 staining Anti-CD3 stimulation; for fold induction at 1 µM: 1 μM Cbl-b inhibitor; for fold induction at 8 µM: 8 μM Cbl-b inhibitor.

The next assay concerns primary human NK cells. The experiment in a line: NK cell activation assessed by cytokine secretion (coculture with K562 NucRed target cells). It is filed as cell-based. As to the method: Peripheral blood mononuclear cells (PBMC) were obtained either: 1) by using Ficoll-Paque™ (GE Healthcare) for separation of peripheral blood hematopoietic cells from buffy coats of healthy human donors; or 2) directly from LeukoPak donations. […] The cells were cultured overnight with IL-2 (60 ng/mL) at 37° C. 5% CO2. Cbl-b inhibitors were added 1 hour prior to stimulation and incubated at 37° C. 5% CO2 at a specific concentration (e.g., 10 μM, 1 μM, or 0.1 μM) with a final DMSO concentration of <0.1%. NK cells were co-cultured with target cells that were engineered to have a red nucleus (K562 NucRed) measurable by flow cytometry. […] The cells were mixed at the indicated ratios (e.g., 5:1, 1:1, or 1:5) of NK (effector cells) to K562 NucRed (target cells) for 6 hours. Cell free supernatants were collected and analyzed for cytokine secretion (e.g. TNFα, IFNγ, or MIP1β) by ELISA or Luminex multiplex kits following the manufacturer's protocol. IFNγ secretion was assessed using an R&D Systems ELISA kit (Catalog #DY285), TNFα secretion was assessed using an R&D Systems ELISA kit (Catalog #DY210), and MIP1β secretion was assessed using an R&D Systems ELISA kit (Catalog #DY271).
Readouts were reported as fold change over baseline. Baseline for this study was the measurement obtained from primary human NK effector cells cocultured with K562 NucRed target cells in the absence of a Cbl-b inhibitor. For NK cells cocultured with K562 NucRed cells, changes greater than 2.0-fold over baseline for cytokine secretion were considered a positive response (Table 10a and 10b).

Setting [5] is: K562, 1:1 E/T, read-out: IFNγ secretion.
Where [6] appears, read: K562, 1:1 E/T, read-out: MIP1β secretion.
The mark [7] stands for this setting: K562, 1:1 E/T, read-out: TNFα secretion.
[8] abbreviates: K562, 5:1 E/T, read-out: IFNγ secretion.
Where [9] appears, read: K562, 5:1 E/T, read-out: MIP1β secretion.
Where [10] appears, read: K562, 5:1 E/T, read-out: TNFα secretion.

Sequence of Cbl-b (residues 36-427) (Q13191 36-427): as above

For `C[C@H](Cc1nncn1C)c1cc(N[C@H]2CCOC2)nc(N2Cc3c(cccc3C(F)(F)F)C2=O)c1` (stereo in doubt) [Compound 361, 2-(4-((R)-1-(4-methyl-4H-1,2,4-triazol-3-yl)propan-2-yl)-6-((R)-THF-3-ylamino)pyridin-2-yl)-4-(trifluoromethyl)isoindolin-1-one], on Cbl-b, the IC50 was 301 to 1000 nM. Besides, the fold induction at 0.3 µM in the assay on T-cell [1] was 1.01 to 2.5; with T-cell [3] it was under 1. In addition, the fold induction at 1 µM was 1.01 to 2.5 in the assay on T-cell [1], 0.051 to 0.1 with T-cell [2], 1.01 to 1.3 in the assay on T-cell [3] and 0.601 to 0.8 with T-cell [4]. The figures for the fold induction at 4 µM in the assay with T-cell [1] and with T-cell [3] were 1.01 to 2.5 and 1.01 to 1.3, respectively. The same compound gave a Kd on Cbl-b (residues 36-427) of 301 to 1000 nM. In addition, the fold induction at 8 µM was in the range of 0.151 to 0.2 with T-cell [2] and 0.801 to 1 with T-cell [4].
`C[C@@H](Sc1nncn1C)c1cccc(NC(=O)c2ccc3ccccc3n2)c1` [Compound 9b, (R)-N-(3-(1-((4-methyl-4H-1,2,4-triazol-3-yl)thio)ethyl)phenyl)quinoline-2-carboxamide]: the fold induction at 1 µM in the assay on primary human NK cells (setting [5]) is under 1; in the assay with primary human NK cells (setting [6]) it was 1.01 to 2; in the assay with primary human NK cells (setting [7]), under 1; in the assay on primary human NK cells (setting [8]) it was under 1; with primary human NK cells (setting [9]), under 1; in the assay on primary human NK cells (setting [10]), under 1. For the same compound, the fold induction at 10 µM in the assay on primary human NK cells (setting [5]), in the assay with primary human NK cells (setting [6]), in the assay on primary human NK cells (setting [7]), in the assay on primary human NK cells (setting [8]), with primary human NK cells (setting [9]) and in the assay on primary human NK cells (setting [10]) was under 1 each time.
With `CNC(=O)COc1ccc2cnc(C(=O)Nc3cccc([C@H](C)Sc4nncn4C)c3)cc2c1` [Compound 306a, (S)-N-(3-(1-(4-methyl-4H-1,2,4-triazol-3-ylthio)ethyl)phenyl)-6-(2-(methylamino)-2-oxoethoxy)isoquinoline-3-carboxamide], the IC50 at Cbl-b lay in the range of 100 to 300 nM. Moreover, in the assay on T-cell [1], the fold induction at 0.3 µM is under 1, the fold induction at 1 µM lay within 1.01 to 2.5 and the fold induction at 4 µM lay in the range of 1.01 to 2.5. Also, the Kd on Cbl-b (residues 36-427) was 100 to 300 nM. Besides, in the assay with T-cell [2], the fold induction at 1 µM was under 0.05 and the fold induction at 8 µM is under 0.05. Besides, in the assay with T-cell [3], the fold induction at 0.3 µM is 1.01 to 1.3, the fold induction at 1 µM lay in the range of 1.01 to 1.3 and the fold induction at 4 µM lay within 1.01 to 1.3. In the assay on T-cell [4], the fold induction at 1 µM was under 0.6 and the fold induction at 8 µM fell in the range of 0.801 to 1.
`C[C@H](Sc1nncn1C)c1cccc(NC(=O)c2cc3cc(OCc4ccn[nH]4)ccc3cn2)c1` [Compound 307, (S)-6-((1H-pyrazol-5-yl)methoxy)-N-(3-(1-((4-methyl-4H-1,2,4-triazol-3-yl)thio)ethyl)phenyl)isoquinoline-3-carboxamide]: the IC50 on Cbl-b lay within 100 to 300 nM. Further, in the assay on T-cell [1], the fold induction at 0.3 µM lay within 1.01 to 2.5, the fold induction at 1 µM fell in the range of 1.01 to 2.5 and the fold induction at 4 µM lay in the range of 2.51 to 5. The compound further showed a Kd at Cbl-b (residues 36-427) of 301 to 1000 nM. In addition, in the assay with T-cell [2], the fold induction at 1 µM lay in the range of 0.051 to 0.1 and the fold induction at 8 µM lay in the range of 0.101 to 0.15. Also, in the assay with T-cell [3], the fold induction at 0.3 µM is under 1, the fold induction at 1 µM was under 1 and the fold induction at 4 µM fell in the range of 1.01 to 1.3. Besides, in the assay with T-cell [4], the fold induction at 1 µM is under 0.6 and the fold induction at 8 µM was under 0.6.
As for `C[C@H](Cc1nncn1C)c1cccc(NC(=O)c2[nH]nc3c2CCCC3)c1` [Compound 327, (R)-N-(3-(1-(4-Methyl-4H-1,2,4-triazol-3-yl)propan-2-yl)phenyl)-4,5,6,7-tetrahydro-2H-indazole-3-carboxamide], the half-inhibitory concentration (IC50) on Cbl-b lay within 301 to 1000 nM. The values for the fold induction at 0.3 µM in the assay with T-cell [1] and with T-cell [3] were 1.01 to 2.5 and 1.01 to 1.3, respectively. The fold induction at 1 µM with T-cell [1] is 1.01 to 2.5; in the assay on T-cell [2] it was 0.051 to 0.1; in the assay on T-cell [3] it was 1.01 to 1.3; with T-cell [4], 0.601 to 0.8. Also, the results for the fold induction at 4 µM with T-cell [1] and with T-cell [3] were 1.01 to 2.5 and 1.01 to 1.3, respectively. Besides, the Kd on Cbl-b (residues 36-427) fell in the range of 1000 to 3000 nM. Also, the fold induction at 8 µM with T-cell [2] lay in the range of 0.051 to 0.1; in the assay with T-cell [4], 0.801 to 1.
As for `Cc1ccc(C(=O)Nc2cccc([C@@H](C)Cc3nccn3C)c2)nc1C1CC1` [Compound 331], the IC50 at Cbl-b lay in the range of 301 to 1000 nM. The fold induction at 0.3 µM is 1.01 to 2.5 in the assay with T-cell [1] and under 1 in the assay with T-cell [3]. Moreover, the fold induction at 1 µM is 1.01 to 2.5 in the assay on T-cell [1], under 0.05 in the assay with T-cell [2], under 1 in the assay with T-cell [3] and under 0.6 in the assay with T-cell [4]. Further, the fold induction at 4 µM lay in the range of 1.01 to 2.5 in the assay on T-cell [1] and 1.01 to 1.3 in the assay on T-cell [3]. Further, the Kd on Cbl-b (residues 36-427) fell in the range of 1000 to 3000 nM. In addition, the fold induction at 8 µM with T-cell [2] lay within 0.051 to 0.1; with T-cell [4], 0.601 to 0.8.

The term IC50 denotes the point on the concentration scale where inhibition reaches its midpoint. The Kd is a measure of binding affinity in units of concentration.
